Test results: patent US12298318B2, “Targeting ligands for tau pathology” (Texas Children's Hospital, priority 2019, dated 2025)

Legend:
[1] = biological target: tetrameric VIM (Homo sapiens, UniProt P08670); details: cited from earlier work
[2] = biological target: T1, MAO-B enzyme (Homo sapiens, UniProt P27338); details: brain; cited from earlier work
T1 sequence (P27338 1-520): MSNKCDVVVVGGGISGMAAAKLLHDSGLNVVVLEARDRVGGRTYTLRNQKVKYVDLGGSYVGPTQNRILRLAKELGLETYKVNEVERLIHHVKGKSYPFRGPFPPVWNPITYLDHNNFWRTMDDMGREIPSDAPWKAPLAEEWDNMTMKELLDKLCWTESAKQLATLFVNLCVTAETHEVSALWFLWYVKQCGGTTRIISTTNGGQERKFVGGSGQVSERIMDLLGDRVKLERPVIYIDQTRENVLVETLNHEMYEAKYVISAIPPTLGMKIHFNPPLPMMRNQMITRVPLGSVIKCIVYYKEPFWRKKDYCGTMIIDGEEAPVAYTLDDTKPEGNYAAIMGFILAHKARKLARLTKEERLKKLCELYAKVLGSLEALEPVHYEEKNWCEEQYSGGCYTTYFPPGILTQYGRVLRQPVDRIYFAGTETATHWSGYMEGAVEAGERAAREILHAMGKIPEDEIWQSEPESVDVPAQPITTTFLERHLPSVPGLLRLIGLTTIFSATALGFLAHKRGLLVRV

[3] = test system: hyperphosphorylated SH SY5Y cells; assay: Saturation binding of Cy5-labeled aptamer, apparent Kd, SH-SY5Y cells; design: species or system human; details: read-out: apparent equilibrium dissociation constant (Kdapp)
Description: (§1) The apparent equilibrium dissociation constants (Kdapp) were measured by serial dilution of aptamer solutions with target hyperphosphorylated, non-target differentiated, and undifferentiated SH-SY5Y cells. The affinity of these aptamers was also tested with another immortal neural progenitor stem cell line, ReN-VM, in hyperphosphorylative and non-hyperphosphorylative conditions. The Kdapp for Tau_1 (SEQ ID NO: 5; DONGYBM) and Tau_3 (SEQ ID NO: 6; MUSQD) with hyperphosphorylated SH SY5Y cells is 0.167±0.015 nM and 0.194±0.032 nM; and for the ReN-VM cells 318.15±46.2 nM and 234.24±38.6 nM, respectively (FIG. 3).
(§2) Hyperphosphorylation. Hyperphosphorylation was induced in SH-SY5Y cells by addition of 30 nM OA (Sigma Aldrich, St. Louis, MO, #459620) in growth medium with 30 μM RA for 24 h. ReNcell VM were hyperphosphorylated using 100 nM QA (SigmaAldrich, St. Louis, MO, #P63204) in culture media for 24 h.
(§3) Aptamer binding studies. Aptamer binding studies were conducted with undifferentiated, differentiated, and hyperphosphorylated SH SY5Y and ReN cell VM grown in 96-wells seeded at 10000 per well. […]

[4] = test system: ReN-VM cells; assay: Saturation binding of Cy5-labeled aptamer, apparent Kd, ReN-VM cells; details: read-out: apparent equilibrium dissociation constant (Kdapp)
Description: as §1, §2, §3

[5] = test system: hyperphosphorylative SH-SY5Y cells; assay: Binding studies with Cy5-labeled aptamer (cell staining); format: cell-based, human; details: 50 nM, 2 h at 4° C. (FIG. 2C)
From the text: Negative selection eliminated certain sequences that were not specific to the hyperphosphorylative state or have a propensity for hepatocyte uptake. However, the relative abundance of key sequences increased steadily throughout the whole process. The 23 most abundant sequences at round 26 were identified, and their abundance throughout the SELEX process as calculated using AptaAligner is shown in FIG. 2B. The sequence Tau_1 (SEQ ID NO: 5; DONGYBM) was the most prevalent at cycle 26, representing 20.6% of the thioaptamers present. A single base difference from this sequence, Tau_3 (SEQ ID NO: 6; MUSQD), was the second most represented sequence (10.4%). […] The secondary structure of the aptamers Tau_1 (SEQ ID NO: 5; DONGYBM) and Tau_3 (SEQ ID NO: 6; MUSQD) calculated using mfold is shown in FIG. 2D. The sequences present at the final round were grouped by hierarchical clustering and sequence homology using the multiple sequence alignment code MAFFT showing five distinct families, which were also presented as a cladogram (using the Clustal Omega) showing the common ancestry between these five aptamers families (FIG. 2E).
Immunocytochemistry. […]

[6] = test system: OA treated differentiated SH-SY5Y cells; assay: Cell-SELEX sequence abundance by next-generation sequencing; design: species or system human; details: SELEX cycle 26
Description: Aptamer screening was performed using the cell-SELEX approach on differentiated SH-SY5Y cells in a hyperphosphorylative state. FIGS. 2A-2E describe how cell-SELEX was used to identify biomarkers of onset the of AD. OA treated differentiated SH-SY5Y cells were used as a surrogate for hyperphosphorylative neurons to screen DNA aptamers that specifically recognize the differences between the surfaces of treated and untreated cells, using the cell-SELEX methodology modified to capture membrane binding aptamers. A total of 26 cell SELEX cycles were performed. […]
Negative selection eliminated certain sequences that were not specific to the hyperphosphorylative state or have a propensity for hepatocyte uptake. […] The 23 most abundant sequences at round 26 were identified, and their abundance throughout the SELEX process as calculated using AptaAligner is shown in FIG. 2B. […] The secondary structure of the aptamers Tau_1 (SEQ ID NO: 5; DONGYBM) and Tau_3 (SEQ ID NO: 6; MUSQD) calculated using mfold is shown in FIG. 2D. […]
Next-Generation Sequencing (NGS). […] Equimolar quantities of the recovered TA sequences over the range were pooled together and sequenced by Next-Gen DNA sequencing using Ion318 chip (ThermoFisher, Waltham, MA). […]

[7] = test system: hyperphosphorylated SH-SY5Y cells; assay: Aptamer-based pulldown and mass spectrometry target identification; design: species or system human; details: pulldown / immunoprecipitation, mass-spectrometry
Description: To characterize the binding target of the aptamers, an aptamer-based pulldown assay was performed, along with aptamer-based immunoprecipitation, followed by mass-spectrometry. The assay was performed for both Tau_1 (SEQ ID NO: 5; DONGYBM) and Tau_3 (SEQ ID NO: 6; MUSQD) aptamers. […] The surface expression of Keratin 6a, 6b was similar on wild-type and transgenic tissue sections, whereas the VIM expression was higher in the Tg mice (FIG. 6C).
Target Identification. The protein targets of Tau_1 (SEQ ID NO: 5; DONGYBM), Tau_3 (SEQ ID NO: 6; MUSQD), Tau-4, and Tau-5 were identified by affinity-pull down using the selected aptamers as the capturing reagent followed by mass-spectroscopy. A scrambled DNA sequence, R2, was used as a control. The hyperphosphorylated SH-SY5Y cells, at 90-95% confluence, were washed with cold PBS buffer and incubated with biotinylated selected aptamers with […] each at 4° C. in PBS, respectively. After 2 hours of gentle agitation, SH-SY5Y cells were cross-linked with 1% formaldehyde for 10 min at rt. The formaldehyde cross-linking was quenched with glycine. Cells were scraped from the plate, washed, lysed with lysing buffer (Thermofisher Scientific, #87787), and treated with protease inhibitor mixture. The lysates were freeze-thawed for 30 min on ice and cleared by centrifuging at 10,000×g for 2 min at 4° C. […] Each sample was analyzed in triplicate. […]

Sequence of tetrameric VIM (P08670 whole entry): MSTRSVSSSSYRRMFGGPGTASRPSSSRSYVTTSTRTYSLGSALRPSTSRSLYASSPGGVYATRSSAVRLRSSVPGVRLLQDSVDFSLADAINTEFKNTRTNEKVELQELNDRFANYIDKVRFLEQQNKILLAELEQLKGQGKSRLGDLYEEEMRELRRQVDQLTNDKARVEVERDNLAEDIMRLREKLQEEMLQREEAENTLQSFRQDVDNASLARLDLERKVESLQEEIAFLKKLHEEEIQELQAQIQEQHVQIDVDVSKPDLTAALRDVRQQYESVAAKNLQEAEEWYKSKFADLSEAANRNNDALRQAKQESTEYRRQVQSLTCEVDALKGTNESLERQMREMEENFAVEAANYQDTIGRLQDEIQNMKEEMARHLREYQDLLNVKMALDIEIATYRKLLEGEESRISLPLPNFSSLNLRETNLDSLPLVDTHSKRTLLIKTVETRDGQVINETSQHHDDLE

CC1=C(CO)C(=O)O[C@@H]([C@@H](C)[C@H]2CC[C@H]3[C@@H]4C[C@H]5O[C@]56[C@@H](O)C=CC(=O)[C@]6(C)[C@H]4CC[C@]23C)C1 [Withaferin A]
binding site on vimentin [1]: binds the conserved cysteine 382 residue on tetrameric VIM

Fc1ccc(-c2ccc3c(c2)[nH]c2ccncc23)cn1 [Flortaucipir]
off-target binding [2]: binds the MAO-B enzyme in the brain

Tau_1: DNA thioaptamer CCCCCCACGGTCTCCGCTCCACAAGTTCAC (DNA, backbone and methylation of C not given here; further chemistry not fully specified)
Kd [3]: 0.167 ± 0.015 nM | Kd [4]: 318 ± 46.2 nM | binding of Cy5-labeled aptamer to cells [5]: elevated binding levels with the hyperphosphorylative cells | fraction of the thioaptamers present (abundance) [6]: 20.6% | possible binding targets by abundance score ranking [7]: keratin 6a, Keratin 6b, and VIM

Tau_3: DNA thioaptamer CCCCCCACGGTCTCCGCTCCACAAGTCCAC
Kd [3]: 0.194 ± 0.032 nM | Kd [4]: 234 ± 38.6 nM | binding of Cy5-labeled aptamer to cells [5]: elevated binding levels with the hyperphosphorylative cells | fraction of the thioaptamers present (abundance) [6]: 10.4% | possible binding targets by abundance score ranking [7]: keratin 6a, Keratin 6b, and VIM
